The values below come from article PMC11243685, “Synthesis and Enzymatic Evaluation of a Small Library of Substituted Phenylsulfonamido-Alkyl Sulfamates towards Carbonic Anhydrase II” (Molecules, 2024).

The target of data set [1] is T1, bovine carbonic anhydrase II (Bos taurus, UniProt P00921).
T1 construct: carbonic anhydrase II (bCAII, ≥3000 W-A units/mg from bovine erythrocytes) from Sigma; purchased Sigma (Taufkirchen, Germany); host or cells: isolated from bovine erythrocytes
The data set is described as follows: Enzymatic assay of bCA II inhibition, absorbance at 415 nm.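 On all read-outs here: enzyme is carbonic anhydrase II isolated from bovine erythrocytes, with its activity followed photometrically at 415 nm.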 It counts as biochemical. The conditions noted are these: for inhibition at 1 µM: bCA II, 1 μM concentration of the inhibitor, triplicate with three technical replicas.
Protocol: The enzymatic assays have been performed with carbonic anhydrase II (bCAII, ≥3000 W-A units/mg from bovine erythrocytes) from Sigma (Taufkirchen, Germany) using a BMG Labtech Spectrostar Omega apparatus (BMG Labtech, Ortenberg, Germany) measuring λ = 415 nm. Conditions have been described previously [72]. Ki and Ki′ values were determined from Lineweaver–Burk, Dixon and Cornish Bowden plots, respectively.

The structures appear in SMILES notation.

T1 sequence (P00921 whole entry): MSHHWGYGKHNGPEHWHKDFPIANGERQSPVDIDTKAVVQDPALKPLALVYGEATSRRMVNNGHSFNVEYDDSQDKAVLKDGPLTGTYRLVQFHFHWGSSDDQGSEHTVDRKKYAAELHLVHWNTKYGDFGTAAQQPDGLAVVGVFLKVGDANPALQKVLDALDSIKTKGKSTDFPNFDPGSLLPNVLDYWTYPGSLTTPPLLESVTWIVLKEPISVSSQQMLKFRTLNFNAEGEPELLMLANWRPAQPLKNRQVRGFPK

With `Cc1cccc(S(=O)(=O)NCCCCCOS(N)(=O)=O)c1` [22b, 5-[(3-Methylphenyl)sulfonamido]pentyl Sulfamate], the melting point (commonly the temperature of the solid-liquid transition) was 67 to 68 °C. At 1 µM the inhibition in data set [1] was 49.1 ± 0.2%.

In the case of `Cc1cccc(S(=O)(=O)NCCCCCCCCOS(N)(=O)=O)c1` [25b, 8-[(3-Methylphenyl)sulfonamido]octyl Sulfamate], the melting point was in the range of 54 to 56 °C. In data set [1], the inhibition – broadly, the share of the control response that was lost under treatment – at 1 µM came to 38.8 ± 0.1%.

With `CC(C)c1ccc(S(=O)(=O)NCCCCCOS(N)(=O)=O)cc1` [36b, 5-[(4-Isopropylphenyl)sulfonamido]pentyl Sulfamate], the melting point fell in the range of 95 to 97 °C. Also, the inhibition at 1 µM in data set [1] was determined as 40.8 ± 0.6%.

`Cc1ccccc1S(=O)(=O)NCCCOS(N)(=O)=O` [27b, 3-[(2-Methylphenyl)sulfonamido]propyl Sulfamate] returned a melting point of 68 to 70 °C. Besides, the inhibition at 1 µM in data set [1] was determined as 50 ± 0.8%.

Regarding `CC(C)(C)c1ccc(S(=O)(=O)NCCCCCOS(N)(=O)=O)cc1` [52b, 5-[(4-(tert-Butyl)phenyl)sulfonamido]pentyl Sulfamate], the melting point lay within 88 to 89 °C. This compound gave an inhibition at 1 µM in data set [1] of 35.9 ± 0.4%.

As for `Cc1cccc(S(=O)(=O)NCCCCCCOS(N)(=O)=O)c1` [23b, 6-[(3-Methylphenyl)sulfonamido]hexyl Sulfamate], the melting point was 74 to 75 °C. The same compound had an inhibition at 1 µM in data set [1] of 51.8 ± 0.7%.

`CC(C)(C)c1ccc(S(=O)(=O)NCCCOS(N)(=O)=O)cc1` [50b, 3-[(4-(tert-Butyl)phenyl)sulfonamido]propyl Sulfamate] returned a melting point of 85 to 86 °C. 1 µM produced 63.4 ± 0.6% inhibition in data set [1].

In turn, `CC(C)c1ccc(S(=O)(=O)NCCCCCCOS(N)(=O)=O)cc1` [37b, 6-[(4-Isopropylphenyl)sulfonamido]hexyl Sulfamate] returned a melting point of 102 to 103 °C. The inhibition at 1 µM in data set [1] was 45.9 ± 0.7%.

With `Cc1ccccc1S(=O)(=O)NCCOS(N)(=O)=O` [26b, 2-[(2-Methylphenyl)sulfonamido]ethyl Sulfamate], the melting point was 70 to 72 °C. The Ki – broadly, the dissociation constant of the complex between target and ligand, obtained from inhibition or displacement – in data set [1] (CA II, from Lineweaver–Burk, Dixon and Cornish Bowden plots, read-out: Inhibition constant Ki) was determined as 1100 ± 30 nM. In data set [1], this compound gave an inhibition at 1 µM of 69.1 ± 0.7%.

With `CC(C)c1ccc(S(=O)(=O)NCCCOS(N)(=O)=O)cc1` [34b, 3-[(4-Isopropylphenyl)sulfonamido]propyl Sulfamate], the melting point fell in the range of 83 to 84 °C. This compound showed an inhibition at 1 µM in data set [1] of 60.3 ± 0.9%.
